Where two headings read alike, the source gives them in different places.
Tests used:
Assay type in all cases: biochemical
human 17β-HSD1 = target: T1, human 17β-HSD1 (Homo sapiens, UniProt P14061); experiment: Inhibition of human 17β-HSD1 (conversion of [3H]-E1 to E2, HPLC radioflow detection); conditions: for inhibition at 1 µM: read-out: % inhibition h17β-HSD1 @ 1 μM; for IC50: read-out: IC50 [nM] h17β-HSD1; for inhibition at 0.01 µM: read-out: % inhibition h17β-HSD1 @ 10 nM
T1 construct: For the partial purification of 17β-HSD1, the cytosolic fraction was precipitated with ammonium sulfate; from tissue; host or cells: human placenta, cytosolic fraction, ammonium sulfate precipitate
T1 sequence (P14061 1-328): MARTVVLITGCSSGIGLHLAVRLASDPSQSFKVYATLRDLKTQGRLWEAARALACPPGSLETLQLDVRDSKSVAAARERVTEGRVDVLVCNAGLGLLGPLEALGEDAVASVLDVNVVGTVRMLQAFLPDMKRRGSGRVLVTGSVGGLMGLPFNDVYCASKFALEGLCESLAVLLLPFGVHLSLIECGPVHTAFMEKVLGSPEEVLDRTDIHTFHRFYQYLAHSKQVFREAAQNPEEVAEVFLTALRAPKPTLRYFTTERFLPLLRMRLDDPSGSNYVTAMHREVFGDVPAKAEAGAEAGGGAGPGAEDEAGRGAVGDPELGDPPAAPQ

human 17β-HSD2 = target: T2, human 17β-HSD2 (Homo sapiens, UniProt P37059); experiment: Inhibition of human 17β-HSD2 (conversion of [3H]-E2 to E1); conditions: for IC50: read-out: IC50 [nM] h17β-HSD2; for inhibition at 0.01 µM: read-out: % inhibition h17β-HSD2 @ 10 nM
T2 construct: 17β-HSD2 was obtained from the microsomal fraction; from tissue; host or cells: human placenta, microsomal fraction
T2 sequence (P37059 1-387): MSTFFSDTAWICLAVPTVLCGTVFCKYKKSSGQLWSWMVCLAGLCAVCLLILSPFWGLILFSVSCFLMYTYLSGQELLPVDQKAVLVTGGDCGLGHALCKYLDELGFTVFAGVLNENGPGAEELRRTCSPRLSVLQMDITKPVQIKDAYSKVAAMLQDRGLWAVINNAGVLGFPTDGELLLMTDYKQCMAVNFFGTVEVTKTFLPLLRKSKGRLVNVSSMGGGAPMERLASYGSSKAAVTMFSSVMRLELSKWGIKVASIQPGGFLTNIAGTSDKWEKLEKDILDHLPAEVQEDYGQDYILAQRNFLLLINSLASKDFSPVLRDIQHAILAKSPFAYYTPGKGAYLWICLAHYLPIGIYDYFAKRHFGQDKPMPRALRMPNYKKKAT
Protocol: Fresh human placenta was homogenized, and cytosolic fraction and microsomes were separated by differential centrifugation at 1,000 g, 10,000 g and 150,000 g.
(§1) The conversion rate was calculated after analysis of the resulting chromatograms according to the following equation: % conversion=[% E1/(% E1+% E2)]×100

mouse 17β-HSD2 = target: T3, mouse 17β-HSD2 (Mus musculus, UniProt P51658); experiment: Inhibition of mouse 17β-HSD2 (liver microsomal fraction); conditions: for inhibition at 0.05 µM: read-out: % inhibition m17β-HSD2 @ 50 nM; for % inhibition m17β-HSD2 @ 50 nM: 0.05 µM
T3 construct: The pellet fractions containing the microsomal 17β-HSD2 were used for the determination of E1 formation; from tissue; host or cells: mouse liver, microsomal fraction
T3 sequence (P51658 1-381): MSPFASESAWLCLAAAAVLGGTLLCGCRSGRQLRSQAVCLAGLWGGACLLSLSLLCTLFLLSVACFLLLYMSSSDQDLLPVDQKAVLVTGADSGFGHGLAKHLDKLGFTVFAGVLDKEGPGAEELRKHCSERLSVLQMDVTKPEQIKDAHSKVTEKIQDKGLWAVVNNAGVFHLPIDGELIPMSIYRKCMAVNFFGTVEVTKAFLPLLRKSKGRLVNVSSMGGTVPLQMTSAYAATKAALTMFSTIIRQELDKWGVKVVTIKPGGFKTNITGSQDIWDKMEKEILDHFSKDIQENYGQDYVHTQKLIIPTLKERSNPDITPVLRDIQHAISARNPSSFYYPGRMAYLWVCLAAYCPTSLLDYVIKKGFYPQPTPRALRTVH
Protocol: Microsomal 17β-HSD2 fractions were obtained from mouse or rat liver. Fresh liver tissues were processed as described for the human placental 17β-HSD2 preparation. The pellet fractions containing the microsomal 17β-HSD2 were used for the determination of E1 formation.
as §1

[1] = human placental cytosolic enzyme, E1 500 nM, NADH, Tables 1, 4-11

Row | Compound | inhibition at 0.01 µM (human 17β-HSD1) [%] | inhibition at 0.01 µM (human 17β-HSD2) [%] | inhibition at 0.05 µM (mouse 17β-HSD2) [%] | further results
1 | O=C(c1cccc(O)c1)c1ccc(-c2ccc(F)cc2F)s1 [A, reference compound] |  |  |  | inhibition at 1 µM (human 17β-HSD1): 32%
2 | O=C(c1ccc(-c2ccncc2)s1)c1c(F)ccc(O)c1F [Compound 8, (2,6-Difluoro-3-hydroxy-phenyl)-(5-pyridin-4-yl-thiophen-2-yl)-methanone] |  |  |  | inhibition at 1 µM (human 17β-HSD1): 27%; inhibition at 1 µM (human 17β-HSD2; read-out: % inhibition h17β-HSD2 @ 1 μM): 49%
3 | CC(C)Oc1ccc(-c2ccc(C(=O)c3c(F)ccc(O)c3F)s2)cc1C#N [Compound 18, 5-[5-(2,6-Difluoro-3-hydroxy-benzoyl)-thiophen-2-yl]-2-isopropoxy-benzonitrile] |  |  |  | IC50 (human 17β-HSD1): 8 nM; IC50 (human 17β-HSD2): 19 nM
4 | COc1c(C)cc(-c2ccc(C(=O)c3c(F)ccc(O)c3F)s2)cc1Cl [Compound 26, [5-(3-Chloro-4-methoxy-5-methyl-phenyl)-thiophen-2-yl]-(2,6-difluoro-3-hydroxy-phenyl)-methanone] |  |  |  | IC50 (human 17β-HSD1; [1]): 0.4 nM
5 | Cc1cc(-c2ccc(C(=O)c3c(F)ccc(O)c3F)s2)cc(Cl)c1O [Compound 27, [5-(3-Chloro-4-hydroxy-5-methyl-phenyl)-thiophen-2-yl]-(2,6-difluoro-3-hydroxy-phenyl)-methanone] |  |  |  | IC50 (human 17β-HSD1): 0.2 nM
6 | COc1ccc(-c2ccc(C(=O)c3cc(F)c(F)c(O)c3F)s2)cc1 [Compound 51, (5-(4-Methoxyphenyl)thiophen-2-yl)(2,4,5-trifluoro-3-hydroxyphenyl)methanone] | 47 | 87 |  | 
7 | COc1cccc(-c2ccc(C(=O)c3cc(F)c(F)c(O)c3F)s2)c1 [Compound 52, (5-(3-Methoxyphenyl)thiophen-2-yl)(2,4,5-trifluoro-3-hydroxyphenyl)methanone] | 75 | 47 | 15 | 
8 | COc1ccccc1-c1ccc(C(=O)c2cc(F)c(F)c(O)c2F)s1 [Compound 53, (5-(2-Methoxyphenyl)thiophen-2-yl)(2,4,5-trifluoro-3-hydroxyphenyl)methanone] | 81 | 96 | 34 | 
9 | CC(=O)Nc1cccc(-c2ccc(C(=O)c3cc(F)c(F)c(O)c3F)s2)c1 [Compound 54, N-(3-(5-(2,4,5-Trifluoro-3-hydroxybenzoyl)thiophen-2-yl)phenyl)acetamide] | 31 | 89 | 30 | 
10 | Nc1ccccc1-c1ccc(C(=O)c2cc(F)c(F)c(O)c2F)s1 [Compound 55, (5-(2-Aminophenyl)thiophen-2-yl)(2,4,5-trifluoro-3-hydroxyphenyl)methanone] | 12 | 68 | 23 | 
11 | O=C(c1ccc(-c2ccccc2)s1)c1cc(F)c(F)c(O)c1F [Compound 56, (5-Phenylthiophen-2-yl)(2,4,5-trifluoro-3-hydroxyphenyl)methanone] | 71 | 93 |  | 
12 | Cc1ccc(-c2ccc(C(=O)c3cc(F)c(F)c(O)c3F)s2)cc1N [Compound 57, (5-(3-Amino-4-methylphenyl)thiophen-2-yl)(2,4,5-trifluoro-3-hydroxyphenyl)methanone] | 14 | 60 |  | 
13 | Nc1cc(-c2ccc(C(=O)c3cc(F)c(F)c(O)c3F)s2)ccc1O [Compound 59, (5-(3-Amino-4-hydroxyphenyl)thiophen-2-yl)(2,4,5-trifluoro-3-hydroxyphenyl)methanone] | 48 | 68 | 27 | 
14 | COc1ccc(-c2ccc(C(=O)c3cc(F)c(F)c(O)c3F)s2)cc1N [Compound 60, (5-(3-Amino-4-methoxyphenyl)thiophen-2-yl)(2,4,5-trifluoro-3-hydroxyphenyl)methanone] | 13 | 51 | 23 | 
15 | O=C(c1ccc(-c2ccc3[nH]ccc3c2)s1)c1cc(F)c(F)c(O)c1F [Compound 61, (5-(1H-Indol-5-yl)thiophen-2-yl)(2,4,5-trifluoro-3-hydroxyphenyl)methanone] | 48 | 68 | 60 | 
16 | CC(=O)Nc1ccc(-c2ccc(C(=O)c3cc(F)c(F)c(O)c3F)s2)cc1 [Compound 64, N-(4-(5-(2,4,5-trifluoro-3-hydroxybenzoyl)thiophen-2-yl)phenyl)acetamide] | 0 | 62 | 28 | 
17 | O=C(c1ccc(-c2cccnc2)s1)c1cc(F)c(F)c(O)c1F [Compound 65, (5-(Pyridin-3-yl)thiophen-2-yl)(2,4,5-trifluoro-3-hydroxyphenyl)methanone] | 15 | 62 |  | 
18 | O=C(c1ccc(-c2ccc3cccnc3c2)s1)c1cc(F)c(F)c(O)c1F [Compound 66, (5-(Quinolin-7-yl)thiophen-2-yl)(2,4,5-trifluoro-3-hydroxyphenyl)methanone] | 22 | 83 |  | 
19 | O=C(c1ccc(-c2ccc3[nH]cnc3c2)s1)c1cc(F)c(F)c(O)c1F [Compound 67, (5-(1H-Benzo[d]imidazol-5-yl)thiophen-2-yl)(2,4,5-trifluoro-3-hydroxyphenyl)methanone] | 30 | 86 |  | 
20 | O=C(c1ccc(-c2cccc(O)c2)s1)c1cc(F)c(F)c(O)c1F [Compound 69, (5-(3-Hydroxyphenyl)thiophen-2-yl)(2,4,5-trifluoro-3-hydroxyphenyl)methanone] | 72 | 95 | 32 | 
21 | O=C(c1ccc(-c2ccccc2O)s1)c1cc(F)c(F)c(O)c1F [Compound 70, (5-(2-Hydroxyphenyl)thiophen-2-yl)(2,4,5-trifluoro-3-hydroxyphenyl)methanone] | 19 | 100 |  | 
22 | Cc1cc(-c2ccc(C(=O)c3cc(F)cc(O)c3C)s2)cc(C)c1O [Compound 71, (5-(4-Hydroxy-3,5-dimethylphenyl)thiophen-2-yl)(5-fluoro-3-hydroxy-2-methylphenyl)methanone] |  |  | 79 | IC50 (human 17β-HSD1; [1]): 12.6 nM; IC50 (human 17β-HSD2): 50 nM; % inhibition m17β-HSD2 @ 50 nM (mouse 17β-HSD2): 79% @ 50 nM
23 | Cc1cc(-c2ccc(C(=O)c3cc(F)c(F)c(O)c3C)s2)cc(C)c1O [Compound 72, (4,5-Difluoro-3-hydroxy-2-methylphenyl)(5-(4-hydroxy-3,5-dimethylphenyl)thiophen-2-yl)methanone] |  |  | 22 | IC50 (human 17β-HSD1; [1]): 44 nM; IC50 (human 17β-HSD2): 159 nM; % inhibition m17β-HSD2 @ 50 nM (mouse 17β-HSD2): 22% @ 50 nM
24 | Cc1ccc(C(=O)c2cc(F)c(F)c(O)c2F)s1 [Compound 73, (5-Methylthiophen-2-yl)(2,4,5-trifluoro-3-hydroxyphenyl)methanone] |  |  |  | inhibition at 0.1 µM (human 17β-HSD1; read-out: % inhibition h17β-HSD1 @ 100 nM, compound 100 nM): 9.1%
25 | NS(=O)(=O)Oc1ccc(-c2ccc(C(=O)c3cc(F)c(F)c(O)c3F)s2)cc1 [Compound 74, 4-(5-(2,4,5-Trifluoro-3-hydroxybenzoyl)thiophen-2-yl)phenyl sulfamate] | 20 | 72 |  | 
26 | COc1c(Cl)cc(-c2ccc(C(=O)c3c(Cl)ccc(O)c3F)s2)cc1Cl [Compound 77, (6-Chloro-2-fluoro-3-hydroxyphenyl)(5-(3,5-dichloro-4-methoxyphenyl)thiophen-2-yl)methanone] | 100 | 45 |  | 
27 | Nc1cccc(-c2ccc(C(=O)c3cccc(O)c3)s2)c1 [F, reference compound] |  |  |  | inhibition at 1 µM (human 17β-HSD1): 77%; inhibition at 1 µM (human 17β-HSD2; read-out: IC50 [nM] or % inhibition h17β-HSD1 (second column so headed, Table 6): % @ 1 μM): 68%
